Test results as given in patent publication US10370348B2, “Tocopherol and tocopheryl quinone derivatives as correctors of lysosomal storage disorders” (The United States of America, as represented by the …, priority 2012, dated 2019).

Test system: wild type cells
Assay: Reduction of cholesterol levels in wild type cells
Format: cell-based
Settings: with increasing concentration, FIG. 1A
Protocol: The half maximal effective concentration (EC-50) for delta-tocopherol and five analogues was measured in wild type and NPC 3123 cells. […] Further, in NPC cells (FIG. 1B), the cholesterol level drop was substantial relative to the control (no delta-tocopherol).

Cc1cc(O)cc2c1O[C@](C)(CCC[C@H](C)CCC[C@H](C)CCCC(C)C)CC2 [delta-tocopherol]
cholesterol levels in wild type cells: cholesterol levels dropped
